“Also recorded” adds a separate entry of the source. Structures can show the parent of a compound that is named as a salt.
Columns and labels:
[1] = tested on: phosphorylation of STAT3/5; experiment: NIA/FACS of tumor cells of lymphoma patients treated with atorvastatin; type: in vivo, human
Source text: FIG. 5A-5C. NIA detected decrease in oncoproteins upon treatment with biologic response modifying therapeutic agent. (FIG. 5A) Schematic for the use of NIA to assess proteomic changes in clinical tumor specimens. Patients undergo pretreatment tumor sampling at baseline and again after 8 d of treatment with atorvastatin. (FIG. 5B) NIA analysis of tumor cells for changes in pSTAT3 and pSTAT5. (FIG. 5C) NIA quantification of pSTAT3 and pSTAT5±s.e.m. Samples were run in triplicate.
Predicted pl's were calculated using Scansite.
Phosphorylation of STAT3/5 decreased in lymphoma patients treated with atorvastatin. Tumor cells were sampled from lymphoma patients day 1 and day 8 of atorvastatin treatment.

[2] = tested on: mouse model of lymphoma; settings: associated with specific changes in oncoprotein signaling; cited from earlier work
[3] = tested on: K562 human CML cell line; experiment: NIA of K562 CML cells treated with imatinib in vitro; type: cell-based; parameters: activated caspase-3 associated with apoptosis: dose or concentration left out as unconfirmed
Method: The NIA experiments were performed using a Firefly™ or CB1000™ instrument (Cell Biosciences). Briefly, for each capillary analysis, 4 nanoliters of 10 mg/ml lysate were diluted to 0.2 mg/ml in 200 nanoliters HNG-based lysis buffer [20 mM Hepes pH 7.5, 25 mM NaCl, 0.1%, 10% glycerol, Sigma Phosphatase Inhibitor Cocktail 1, Calbiochem Protease Inhibitor] or 200 nanoliters Bicine/CHAPS lysis buffer. 200 nanoliters sample mix containing internal pl standards were added. The Firefly system first performed a charge-based separation (isoelectric focusing) in a 5 cm long, 100 micron inner-diameter capillary. Predicted pl's were calculated using Scansite. Each sample was run on a panel of different pH gradients (3-10, 5-9) to optimize the resolution of different peak patterns. After separation and photo-activated in-capillary immobilization, proteins were detected with antibodies: MYC protein expression was detected using the C-19 rabbit polyclonal antibody that recognizes mouse and human MYC (Santa Cruz Biotechnology). BCL2 protein expression was detected using the clone 124 mouse monoclonal antibody that recognizes human BCL2 (Dako Laboratories). Total ERK1/2 protein expression was detected using a rabbit polyclonal antibody that recognizes mouse and human ERK1/2 (Upstate). Phospho-ERK 1/2 protein expression was detected using a mouse monoclonal antibody that recognizes both mouse and human pERK 1/2 (Cell Signaling). Additional antibodies used were: activated caspase 3 (Cell Signaling), MEK1 (Upstate), pMEK1 (Novus), MEK2 (Abcam), pSTAT3 (Cell Signaling), pSTAT5 (Cell Signaling), pJNK (Cell Signaling), HSP70 (Novus).
Quantitation of the peaks is performed using peak analysis software. The start and end of each peak, and a flat baseline were manually selected. The area of each peak was calculated by dropping verticals to the baseline at the peak start and end, and summing the area between the start and endpoints. […] The areas under different peaks within a single tracing represented various ERK isoforms. […]

[4] = tested on: human leukemic cell line TF1; experiment: NIA of TF1 cells before and after treatment with ON01910; type: cell-based
Method: Using a single antibody that recognizes both the phosphorylated and unphosphorylated isoforms of ERK, we can determine levels of each ERK isoform, and also percent phosphorylation of ERK. […] To determine if NIA can measure signaling changes during treatment with novel drugs, human leukemic cells were treated with a PLK-1 inhibitor, ON01910 (Onconova, Inc). […] MEK2 phosphorylation decreased by 20% after ON01910 treatment. […] Treatment with ON01910 altered phosphorylation of signaling proteins in TF1 cells.

[5] = TF1 cells after 24 hr of treatment

For `CC(C)c1c(C(=O)Nc2ccccc2)c(-c2ccccc2)c(-c2ccc(F)cc2)n1CC[C@@H](O)C[C@@H](O)CC(=O)O` [atorvastatin], the “phosphorylation of STAT3/5” value ([1]; after eight days of treatment, NIA) is given as “detectable decreases; also recorded: decreased”, the “STAT3 and STAT5 phosphorylation in CD20 positive cells” value ([1]; day 1 and day 8 of treatment, NIA and FACS) is given as “dramatic decrease” and the tumor regression [2] is given as “causes tumor regression”.

For `Cc1ccc(NC(=O)c2ccc(CN3CCN(C)CC3)cc2)cc1Nc1nccc(-c2cccnc2)n1` [imatinib, imatinib mesylate], the “phosphorylation of STAT3/5, JNK, MEK1 and MEK2” value ([3]; K562, imatinib final concentration 10 mM in vitro, 0 h, 4 h and 20 h) was “changes in phosphorylation”, the “activated caspase-3 associated with apoptosis” value ([3]; K562, imatinib in vitro, 0 h, 4 h and 20 h) was “expected increase” and the “specific ERK2 phospho-isomer (peak 3)” value ([3]; K562, imatinib in vitro, 24 hours) was “decrease; also recorded: change in phospho-ERK”.

In the case of `COc1cc(OC)c(/C=C/S(=O)(=O)Cc2ccc(OC)c(NCC(=O)O)c2)c(OC)c1` [ON01910], the MEK2 phosphorylation decrease ([4]; TF1 cell line after ON01910 treatment) is reported as 20%, the “phosphorylation of JNK” value [4, 5] is reported as “increased phosphorylation” and the “phosphorylation of MEK2” value [4, 5] is reported as “decreased phosphorylation”.

Source: patent US10145851B2, “Discovery and validation of cancer biomarkers using a protein analysis methodology to analyze specimens” (The Board of Trustees of the Leland Stanford Junior …, priority 2009, dated 2018)
